# Assay results reported in patent US8026359B2, “Fungicidal heterocyclic amines” (E.I. du Pont de Nemours and Company, priority 2007, dated 2011).
# How the values were obtained:
# Type in all cases: in vivo
# Fusarium graminearum = assay: whole plant or invertebrate; details: for Test E disease control rating: 200 ppm, 100 = 100% disease control, 0 = no control relative to controls; for pest or weed control at 200 ppm: Fusarium graminearum, in Triticum aestivum, 192 h, read-out: Test E disease control rating
# Septoria tritici = assay: Test D: wheat leaf blotch, preventive spray on wheat seedlings; details: 200 ppm, 100 = 100% disease control, 0 = no control relative to controls; for pest or weed control at 200 ppm: Zymoseptoria tritici, 504 h, read-out: Test D disease control rating
# Description: (§1) General protocol for preparing test suspensions for Tests A-R: The test compounds were first dissolved in acetone in an amount equal to 3% of the final volume and then suspended at the desired concentration (in ppm) in acetone and purified water (50/50 mix) containing 250 ppm of the surfactant Trem® 014 (polyhydric alcohol esters). The resulting test suspensions were then used in tests A-R. In Tests A-M, compounds were sprayed as a 200 ppm test suspension (equivalent to a rate of 500 g/ha) or as a 40 ppm test suspension to the point of runoff on the test plants. In Tests N-R, compounds were sprayed as a 100 g/ha test suspension (equivalent to a rate of 100 ppm) on the test plants at an application volume of 1000 L/ha. The test suspension was sprayed to the point of run-off on wheat seedlings.
# Septoria nodorum = assay: Test C: wheat glume blotch, preventive spray on wheat seedlings; details: 200 ppm, 100 = 100% disease control, 0 = no control relative to controls; for pest or weed control at 200 ppm: Parastagonospora nodorum, 216 h, read-out: Test C disease control rating
# Description: as §1
# [1] = system: Erysiphe graminis f. sp. tritici; assay: Test A: wheat powdery mildew, preventive spray on wheat seedlings; details: 200 ppm, 100 = 100% disease control, 0 = no control relative to controls; for pest or weed control at 200 ppm: Blumeria graminis, 192 h, read-out: Test A disease control rating
# Description: as §1
# Botrytis cinerea = assay: Test F: tomato Botrytis, preventive spray on tomato seedlings; details: 200 ppm, 100 = 100% disease control, 0 = no control relative to controls; for pest or weed control at 200 ppm: Botrytis cinerea, 120 h, read-out: Test F disease control rating
# Description: as §1, with “tomato” for “wheat”
# [2] = system: Puccinia recondita f. sp. tritici; assay: Test B: wheat leaf rust, preventive spray on wheat seedlings; details: 200 ppm, 100 = 100% disease control, 0 = no control relative to controls; for pest or weed control at 200 ppm: Puccinia recondita, 192 h, read-out: Test B disease control rating
# Description: as §1
# [3] = system: Colletotrichum orbiculare; assay: Test I: cucumber Colletotrichum anthracnose, preventive spray on cucumber seedlings; details: 100 = 100% disease control, 0 = no control relative to controls; for Test I disease control rating: 200 ppm; for pest or weed control at 200 ppm: Colletotrichum orbiculare, 144 h, read-out: Test I disease control rating
# Description: as §1, with “cucumber” for “wheat”
Structure (SMILES),Test E disease control rating (Fusarium graminearum) [%],Test D disease control rating (Septoria tritici) [%],Test C disease control rating (Septoria nodorum) [%],Test A disease control rating [1] [%],Test F disease control rating (Botrytis cinerea) [%],Test B disease control rating [2] [%],Test I disease control rating [3] [%],pest or weed control at 200 ppm (Fusarium graminearum) [%],pest or weed control at 200 ppm (Septoria tritici) [%],pest or weed control at 200 ppm (Septoria nodorum) [%],pest or weed control at 200 ppm [1] [%],pest or weed control at 200 ppm (Botrytis cinerea) [%],pest or weed control at 200 ppm [2] [%],pest or weed control at 200 ppm [3] [%]
Fc1cccc(Nc2ncnc(-c3ccnc(NC4CCOCC4)n3)n2)c1 [Compound 3],27,67,100,64,0,96,94,,,,,,,
"Clc1cccc(Nc2ncnc(-c3ccnc(NC4CCOCC4)n3)n2)c1 [Compound 4, N-(3-chlorophenyl)-4-[2-[(tetrahydro-2H-pyran-4-yl)amino]-4-pyrimidinyl]-1,3,5-triazin-2-amine]",,,,,,,,0,11,99,0,0,91,66
COC[C@H](C)Nc1nccc(-c2ncnc(Nc3cncc(F)c3)n2)n1 [Compound 35],98,7,98,72,91,100,,,,,,,,
COCC(C)Nc1nccc(-c2ccnc(Nc3cccc(C(=O)OC)c3)c2)n1 (centres unmarked) [Compound 52],0,31,90,0,98,94,0,,,,,,,
COCC(C)Nc1nccc(-c2ccnc(Nc3ccccc3F)c2)n1 (centres unmarked) [Compound 53],0,41,96,88,99,98,26,,,,,,,
COCC(C)Nc1nccc(-c2ccnc(Nc3ccnc(Cl)c3)c2)n1 (centres unmarked) [Compound 54],0,35,64,0,85,96,0,,,,,,,
CSCCNc1nccc(-c2ccnc(Nc3cccc(F)c3)c2)n1 [Compound 55],0,20,78,0,0,95,0,,,,,,,
C[C@H](CO)Nc1nccc(-c2ccnc(Nc3cccc(F)c3)c2)n1 [Compound 57],0,9,51,0,0,95,0,,,,,,,
COCCNc1nccc(-c2ccnc(Nc3cccc(F)c3)c2)n1 [Compound 58],0,36,99,44,86,98,24,,,,,,,
CCCC(C)Nc1nccc(-c2ccnc(Nc3cccc(F)c3)c2)n1 (centres unmarked) [Compound 59],0,0,99,87,57,,0,,,,,,,
CC(C)Nc1nccc(-c2ccnc(Nc3cccc(F)c3)c2)n1 [Compound 60],0,18,100,97,61,95,0,,,,,,,
CCNc1nccc(-c2ccnc(Nc3cccc(F)c3)c2)n1 [Compound 61],0,32,99,0,0,96,0,,,,,,,
"Fc1cccc(Nc2cc(-c3ccnc(NC4CCCC4)n3)ccn2)c1 [Compound 62, N-cyclopentyl-4-[2-[(3-fluorophenyl)amino]-4-pyridinyl]-2-pyrimidinamine]",,,,,,,,0,14,0,0,0,94,0
COCC(C)Nc1nccc(-c2ccnc(Nc3ccc(C#N)cc3)c2)n1 (centres unmarked) [Compound 63],0,41,0,0,0,80,90,,,,,,,
COCCCNc1nccc(-c2ccnc(Nc3cccc(F)c3)c2)n1 [Compound 64],0,95,97,0,0,94,92,,,,,,,
Fc1cccc(Nc2cc(-c3ccnc(NC4CC4)n3)ccn2)c1 [Compound 65],0,0,96,46,0,80,83,,,,,,,
CCNNc1nccc(-c2ccnc(Nc3cccc(F)c3)c2)n1 [Compound 66],64,92,99,0,84,85,,,,,,,,
COC[C@@H](C)Nc1nccc(-c2ccnc(Nc3cccc(F)c3)c2)n1 [Compound 68],0,96,99,0,93,95,,,,,,,,
"Clc1cccc(Nc2cc(-c3ccnc(NC4CCOCC4)n3)ccn2)c1 [Compound 69, 4-[2-[(3-chlorophenyl)amino]-4-pyridinyl]-N-(tetrahydro-2H-pyran-4-yl)-2-pyrimidinamine]",,,,,,,,0,77,97,91,85,94,0
COCC(C)Nc1nccc(-c2ccnc(Nc3c(F)ccc(F)c3F)c2)n1 (centres unmarked) [Compound 70],84,17,99,95,97,98,98,,,,,,,
Fc1cccc(Nc2cc(-c3ccnc(N[C@H]4CCOC4)n3)ccn2)c1 [Compound 71],0,25,99,0,77,94,46,,,,,,,
